Test results reported in BindingDB's records for doi:10.1002/cbic.201300197 (Nankai University, 2013).

Experiments:
Alpha-glucosidase MAL12 = Alpha-glucosidase MAL12 (Saccharomyces cerevisiae (strain ATCC 204508 / S288c), UniProt P53341); experiment: Inhibition Assay Against Commercial Glycosidases; conditions: 37 °C
Method: (§1) In a 96-well plates, 10µL of commercial enzyme solutions without (control) or with 20µL of inhibitor were incubated at 37°C for 5 min. After addition of 20µL of substrate solution, incubations were prolonged for different time periods: 10 min for β-glucosidase (almond), 5 min for α-glucosidase (saccharomyces cerevisiae) and 8 min for β-galactosidase (bovine liver) and α-galactosidase (green coffee beans) and stopped by addition of 150µL of glycine/NaOH buffer (100mM, pH 10.6). The amount of 4-MU formed was determined at 355nm (excitation) and 460nm (emission). For β-glucosidase (almond), the activity was determined with 4-MU-β-D-Glu (1mM) in sodium acetate buffer (100 mM, pH 5.2). For α-glucosidase (saccharomyces cerevisiae), the activity was determined with4-methylumbelliferyl-α-D-glucopyranoside (4-MU-α-D-Glu, 1 mM) in sodium phosphate buffer (100 mM, pH 7.2). For β-galactosidase (bovine liver), the activity was determined with 4-me

Beta-galactosidase = molecular target: T1, Beta-galactosidase (Bos taurus, UniProt Q58D55); experiment: Inhibition Assay Against Commercial Glycosidases; conditions: 37 °C
T1 sequence (Q58D55 whole entry): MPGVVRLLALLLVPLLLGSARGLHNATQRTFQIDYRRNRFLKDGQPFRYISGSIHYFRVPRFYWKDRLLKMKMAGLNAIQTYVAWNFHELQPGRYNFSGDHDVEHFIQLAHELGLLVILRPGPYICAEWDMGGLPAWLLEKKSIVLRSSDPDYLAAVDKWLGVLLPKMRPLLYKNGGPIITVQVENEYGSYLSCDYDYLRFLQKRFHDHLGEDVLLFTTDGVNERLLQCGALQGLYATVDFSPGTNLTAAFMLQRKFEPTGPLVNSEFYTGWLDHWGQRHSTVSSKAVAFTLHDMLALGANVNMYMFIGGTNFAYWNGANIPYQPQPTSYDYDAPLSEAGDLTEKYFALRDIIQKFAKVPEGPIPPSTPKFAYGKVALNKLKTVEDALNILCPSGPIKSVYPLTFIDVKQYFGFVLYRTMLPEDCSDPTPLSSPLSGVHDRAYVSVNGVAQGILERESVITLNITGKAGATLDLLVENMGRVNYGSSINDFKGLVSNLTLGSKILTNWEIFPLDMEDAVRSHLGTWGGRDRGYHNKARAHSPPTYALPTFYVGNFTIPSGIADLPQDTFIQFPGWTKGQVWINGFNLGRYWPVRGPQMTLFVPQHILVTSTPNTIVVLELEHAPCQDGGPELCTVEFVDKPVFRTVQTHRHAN
Method: as §1

Alpha-galactosidase = Alpha-galactosidase (Coffea arabica, UniProt Q42656); experiment: Inhibition Assay Against Commercial Glycosidases; conditions: 37 °C
Method: as §1

Prunasin hydrolase = molecular target: T2, Prunasin hydrolase (Prunus dulcis, UniProt H9ZGE1); experiment: Inhibition Assay Against Commercial Glycosidases; conditions: 37 °C
T2 sequence (H9ZGE1 whole entry): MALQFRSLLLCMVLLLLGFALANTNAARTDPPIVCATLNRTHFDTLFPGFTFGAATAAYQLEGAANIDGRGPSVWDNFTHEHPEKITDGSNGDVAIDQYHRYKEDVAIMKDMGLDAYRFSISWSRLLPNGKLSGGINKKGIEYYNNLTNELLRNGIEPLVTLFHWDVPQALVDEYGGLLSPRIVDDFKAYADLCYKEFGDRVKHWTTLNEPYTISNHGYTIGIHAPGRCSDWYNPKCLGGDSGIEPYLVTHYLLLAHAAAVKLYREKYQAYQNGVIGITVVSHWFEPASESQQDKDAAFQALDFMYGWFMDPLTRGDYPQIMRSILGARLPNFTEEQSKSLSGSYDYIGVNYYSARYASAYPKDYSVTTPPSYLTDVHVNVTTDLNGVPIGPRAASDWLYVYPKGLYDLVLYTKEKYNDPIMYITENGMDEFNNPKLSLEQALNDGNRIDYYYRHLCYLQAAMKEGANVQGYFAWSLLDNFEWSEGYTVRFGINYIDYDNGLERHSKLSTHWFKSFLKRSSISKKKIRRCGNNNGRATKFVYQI
Method: as §1

[1] = molecular target: T3, Lysosomal acid glucosylceramidase (Homo sapiens, UniProt P04062); experiment: GCase Ki Assay; conditions: pH 5.2
T3 sequence (P04062 whole entry): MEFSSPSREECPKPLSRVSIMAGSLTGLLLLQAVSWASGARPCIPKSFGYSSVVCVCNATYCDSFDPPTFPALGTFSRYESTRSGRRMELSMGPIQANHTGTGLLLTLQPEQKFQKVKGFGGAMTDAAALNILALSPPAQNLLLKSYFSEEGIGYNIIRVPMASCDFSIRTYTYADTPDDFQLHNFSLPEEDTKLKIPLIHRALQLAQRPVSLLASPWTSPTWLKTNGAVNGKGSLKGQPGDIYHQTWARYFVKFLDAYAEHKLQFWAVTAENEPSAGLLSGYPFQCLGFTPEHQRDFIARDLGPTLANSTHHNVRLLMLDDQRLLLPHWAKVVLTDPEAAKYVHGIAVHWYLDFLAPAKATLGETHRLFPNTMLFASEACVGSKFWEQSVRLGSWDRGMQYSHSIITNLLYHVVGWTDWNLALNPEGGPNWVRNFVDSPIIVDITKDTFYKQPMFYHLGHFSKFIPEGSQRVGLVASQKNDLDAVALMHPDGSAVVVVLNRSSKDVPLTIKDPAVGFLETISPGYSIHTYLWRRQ

[2] = molecular target: T3, Lysosomal acid glucosylceramidase; experiment: GCase IC50 Assay

Sequence of Alpha-galactosidase (Q42656 whole entry): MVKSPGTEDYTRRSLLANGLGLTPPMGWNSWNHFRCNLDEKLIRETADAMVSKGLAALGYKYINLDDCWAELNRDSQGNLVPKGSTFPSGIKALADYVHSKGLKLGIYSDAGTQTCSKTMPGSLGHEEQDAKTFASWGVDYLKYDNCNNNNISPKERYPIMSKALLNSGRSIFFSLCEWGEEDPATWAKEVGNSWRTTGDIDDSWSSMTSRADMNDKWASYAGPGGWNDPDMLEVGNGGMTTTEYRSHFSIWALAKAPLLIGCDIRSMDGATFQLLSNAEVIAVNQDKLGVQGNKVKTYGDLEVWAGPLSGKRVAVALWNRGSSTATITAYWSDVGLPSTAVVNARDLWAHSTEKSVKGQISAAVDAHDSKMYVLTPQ
Sequence of Alpha-glucosidase MAL12 (P53341 whole entry): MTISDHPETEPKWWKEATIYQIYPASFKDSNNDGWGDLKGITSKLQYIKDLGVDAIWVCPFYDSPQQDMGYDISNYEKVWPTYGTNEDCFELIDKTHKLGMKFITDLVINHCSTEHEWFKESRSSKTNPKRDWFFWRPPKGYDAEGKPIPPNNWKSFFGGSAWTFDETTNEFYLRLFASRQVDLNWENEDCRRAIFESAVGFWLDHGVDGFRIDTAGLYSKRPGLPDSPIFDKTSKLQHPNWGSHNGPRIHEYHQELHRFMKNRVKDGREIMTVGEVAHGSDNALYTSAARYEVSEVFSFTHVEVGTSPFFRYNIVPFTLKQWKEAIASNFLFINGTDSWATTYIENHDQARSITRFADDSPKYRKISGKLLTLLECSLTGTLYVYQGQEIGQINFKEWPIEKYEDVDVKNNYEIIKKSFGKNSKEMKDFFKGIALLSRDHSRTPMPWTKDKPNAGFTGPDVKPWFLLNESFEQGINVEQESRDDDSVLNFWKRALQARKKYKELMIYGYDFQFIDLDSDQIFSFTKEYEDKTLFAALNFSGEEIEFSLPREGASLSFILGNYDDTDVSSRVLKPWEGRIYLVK

Structure (SMILES) | IC50 (Alpha-glucosidase MAL12) [nM] | IC50 (Beta-galactosidase) [nM] | IC50 (Alpha-galactosidase) [nM] | IC50 (Prunasin hydrolase) [nM] | Ki [1] [nM] | IC50 ([2]; pH 5.2) [nM] | IC50 ([2]; pH 7) [nM]
COc1ccc(CCCc2cn3c(n2)C(O)C(O)C(O)C3CO)cc1 (centres undefined) [5-(hydroxymethyl)-2-[3-(4-methoxyphenyl)propyl]-5H,6H,7H,8H-imidazo[1,2-a]pyridine-6,7,8-triol (Compound 6)] | 300 | 92 | 4900 | 78 | 1.17 | 2.97 | 3.62
OCC1C(O)C(O)C(O)c2nc(CCCc3ccc(F)cc3)cn21 (centres undefined) [2-[3-(4-fluorophenyl)propyl]-5-(hydroxymethyl)-5H,6H,7H,8H-imidazo[1,2-a]pyridine-6,7,8-triol (Compound 9)] | 730 | 230 | 3750 | 31 | 3.48 | 6.23 | 4.75
Cc1ccc(CCCc2cn3c(n2)C(O)C(O)C(O)C3CO)cc1 (centres undefined) [5-(hydroxymethyl)-2-[3-(4-methylphenyl)propyl]-5H,6H,7H,8H-imidazo[1,2-a]pyridine-6,7,8-triol (Compound 5)] | 280 | 100 | 4480 | 42 | 1.46 | 5.44 | 4.73
CCCCCCCCCN1C[C@H](O)[C@@H](O)[C@H](O)[C@H]1CO | > 100000 |  | 9490 | 95900 |  |  | 
OCC1C(O)C(O)C(O)c2nccn21 (centres undefined) [5-(hydroxymethyl)-5H,6H,7H,8H-imidazo[1,2-a]pyridine-6,7,8-triol (Compound 1)] | 98500 | 230 | 7290 | 220 | 33.1 | 91.6 | 79.2
CC(C)(CCCc1cn2c(n1)C(O)C(O)C(O)C2CO)C(=O)Nc1ccccc1 (centres undefined) [2,2-dimethyl-N-phenyl-5-[6,7,8-trihydroxy-5-(hydroxymethyl)-5H,6H,7H,8H-imidazo[1,2-a]pyridin-2-yl]pentanamide (Compound 11)] | 12800 | 7830 | 4710 | 910 | 18.9 | 12 | 11.5

Further molecules by falling IC50 (Alpha-glucosidase MAL12), results first:

IC50 (Alpha-glucosidase MAL12) [nM] | IC50 (Beta-galactosidase) [nM] | IC50 (Alpha-galactosidase) [nM] | IC50 (Prunasin hydrolase) [nM] | Ki [1] [nM] | IC50 ([2]; pH 5.2) [nM] | IC50 ([2]; pH 7) [nM] | Structure (SMILES)
3420 | 350 | 12800 | 79 | 5.34 | 5.34 | 4.26 | CC(C)(C)CCc1cn2c(n1)C(O)C(O)C(O)C2CO (centres undefined) [2-(3,3-dimethylbutyl)-5-(hydroxymethyl)-5H,6H,7H,8H-imidazo[1,2-a]pyridine-6,7,8-triol (Compound 3)]
1050 | 11800 | 1480 | 140 | 4.18 | 6.96 | 7.67 | O=C(CCCc1cn2c(n1)C(O)C(O)C(O)C2CO)Nc1ccccc1 (centres undefined) [N-phenyl-4-[6,7,8-trihydroxy-5-(hydroxymethyl)-5H,6H,7H,8H-imidazo[1,2-a]pyridin-2-yl]butanamide (Compound 10)]
970 | 37 | 12500 | 117 | 5.38 | 8.39 | 5.05 | CCCCCCCCc1cn2c(n1)C(O)C(O)C(O)C2CO (centres undefined) [5-(hydroxymethyl)-2-octyl-5H,6H,7H,8H-imidazo[1,2-a]pyridine-6,7,8-triol (Compound 4)]
570 | 190 | 16100 | 58 | 3.19 | 3.71 | 2.04 | OCC1C(O)C(O)C(O)c2nc(CCc3ccccc3)cn21 (centres undefined) [5-(hydroxymethyl)-2-(2-phenylethyl)-5H,6H,7H,8H-imidazo[1,2-a]pyridine-6,7,8-triol (Compound 2)]
52 | 1 | 11400 | 4 | 1.93 | 8.42 | 7.8 | OCC1C(O)C(O)C(O)c2nc(CCCc3ccc(C4CCCCC4)cc3)cn21 (centres undefined) [2-[3-(4-cyclohexylphenyl)propyl]-5-(hydroxymethyl)-5H,6H,7H,8H-imidazo[1,2-a]pyridine-6,7,8-triol (Compound 8)]
6 |  | 1660 | 42 | 3.62 | 5.27 | 5.11 | OCC1C(O)C(O)C(O)c2nc(CCCc3ccc(-c4ccccc4)cc3)cn21 (centres undefined) [5-(hydroxymethyl)-2-[3-(4-phenylphenyl)propyl]-5H,6H,7H,8H-imidazo[1,2-a]pyridine-6,7,8-triol (Compound 7)]
